In PubChem BioAssay AID330 (DTP/NCI, 2004) one finds T/C data, which are given here for 20 compounds.

The assay has as its system P388 leukemia ip, CD2F1 mice, survival T/C. Description: NCI In Vivo Anticancer Drug Screen. Data for tumor model P388 Leukemia (intraperitoneal) in CD2F1 (CDF1) mice. The note with it: endpoint: median survival time, higher = longer survival. In outline: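 Mice carrying the transplanted tumor received test compound or vehicle. Survival was recorded in each group, and the value is the treated-group measurement divided by that of the vehicle-treated control group.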

[1] abbreviates: dose: 50.0 mg/kg/injection, schedule: Q01DX009 (ip), vehicle: saline with Tween-80.
The mark [2] stands for this setting: dose: 60.0 mg/kg/injection, schedule: Q01DX005 (ip), vehicle: saline with Tween-80.
The mark [3] stands for this setting: dose: 120.0 mg/kg/injection, schedule: Q01DX005 (ip), vehicle: saline with Tween-80.
[4] abbreviates: dose: 50.0 mg/kg/injection, schedule: Q01DX009 (ip), vehicle: saline.
[5] abbreviates: dose: 100.0 mg/kg/injection, schedule: Q01DX009 (ip), vehicle: saline.
Where [6] appears, read: dose: 200.0 mg/kg/injection, schedule: Q01DX009 (ip), vehicle: saline.
[7] abbreviates: dose: 12.5 mg/kg/injection, schedule: Q01DX009 (ip), vehicle: distilled water + Tween-80.
The mark [8] stands for this setting: dose: 25.0 mg/kg/injection, schedule: Q01DX009 (ip), vehicle: distilled water + Tween-80.
The mark [9] stands for this setting: dose: 50.0 mg/kg/injection, schedule: Q01DX009 (ip), vehicle: distilled water + Tween-80.
[10] abbreviates: dose: 100.0 mg/kg/injection, schedule: Q01DX009 (ip), vehicle: distilled water + Tween-80.

SMILES strings stand for the structures. “And” between values parts separate entries of the source, which are not always exact repeats. Equal entries are not always repeated. Toxic doses and inconclusive results are not listed.

For the compound `CC1(C)NNC(=S)NN1`, the T/C is 103 % of control (dose: 7.5 mg/kg/injection, schedule: Q01DX005 (ip), vehicle: saline with Tween-80) and 104 % of control (dose: 15.0 mg/kg/injection, schedule: Q01DX005 (ip), vehicle: saline with Tween-80).
On to `CCOC(=O)C(Cc1c[nH]c2ccccc12)NC(=O)C1(O)C(O)C2(CC)C=CCN3CCC4(c5cc(C6(C(=O)OC)CC7CC(CC)CN(CCc8c6[nH]c6ccccc86)C7)c(OC)cc5N(C)C14)C32` (stereo unspecified), for which the T/C (dose: 2.0 mg/kg/injection, schedule: Q01DX001 (ip), vehicle: saline) is 99 % of control; the T/C (dose: 4.0 mg/kg/injection, schedule: Q01DX001 (ip), vehicle: saline) is 118 % of control; the T/C (dose: 16.0 mg/kg/injection, schedule: Q01DX001 (ip), vehicle: saline) is 169 % of control; the T/C (dose: 32.0 mg/kg/injection, schedule: Q01DX001 (ip), vehicle: saline) is 179 % of control; the T/C (dose: 64.0 mg/kg/injection, schedule: Q01DX001 (ip), vehicle: saline) is 178 % of control.
With `CCOc1ccccc1C=C1c2ccccc2C(=O)c2ccccc21`, the T/C is 96 % of control under setting [1]; 92 % of control (dose: 100.0 mg/kg/injection, schedule: Q01DX009 (ip), vehicle: saline with Tween-80); 91 % of control (dose: 200.0 mg/kg/injection, schedule: Q01DX009 (ip), vehicle: saline with Tween-80).
Take `CN(C)c1ccc2c(Cl)cc(=O)[nH]c2c1`: the T/C is 97 % of control under setting [2]; 97 % of control under setting [3]; 97 % of control (dose: 240.0 mg/kg/injection, schedule: Q01DX005 (ip), vehicle: saline with Tween-80).
With `C[n+]1ccccc1-c1ccc[n+](CCCC[n+]2cccc(-c3cccc[n+]3C)c2)c1`, the T/C was 106 % of control under setting [2] and 116 % of control under setting [3].
For the compound `CC(=O)NC(Cc1cnc[nH]1)C(=O)O` (stereo unspecified), the T/C runs as follows: (dose: 100.0 mg/kg/injection, schedule: Q04DX003 (ip), vehicle: saline with Tween-80) 98 % of control; (dose: 200.0 mg/kg/injection, schedule: Q04DX003 (ip), vehicle: saline with Tween-80) 99 % of control; (dose: 400.0 mg/kg/injection, schedule: Q04DX003 (ip), vehicle: saline with Tween-80) 100 % of control.
With `Cc1c(Cl)cc([N+](=O)[O-])cc1S(=O)(=O)Oc1ccccc1`, the T/C was 103 % of control (dose: 100.0 mg/kg/injection, schedule: Q01DX001 (ip), vehicle: Klucel (hydroxypropylcellulose) (HPC)); 108 % of control (dose: 200.0 mg/kg/injection, schedule: Q01DX001 (ip), vehicle: Klucel (hydroxypropylcellulose) (HPC)); 100 % of control (dose: 400.0 mg/kg/injection, schedule: Q01DX001 (ip), vehicle: Klucel (hydroxypropylcellulose) (HPC)).
Turning to `CS[P+]1(C)C=C(N2CCOCC2)CC1` (stereo unspecified), the T/C is, setting by setting: under setting [4], 101 % of control; under setting [5], 96 % of control; under setting [6], 96 % of control.
For `Cc1ccc(S(=O)(=O)C(CC(=O)CCN(C)C)c2ccccc2)cc1` (stereo unspecified), the T/C reads like this: (dose: 25.0 mg/kg/injection, schedule: Q04DX002 (ip), vehicle: saline) 100 % of control; under setting [4], 96 % of control; (dose: 50.0 mg/kg/injection, schedule: Q04DX002 (ip), vehicle: saline) 103 % of control and 95 % of control; under setting [5], 102 % of control; (dose: 100.0 mg/kg/injection, schedule: Q04DX002 (ip), vehicle: saline) 100 % of control; (dose: 200.0 mg/kg/injection, schedule: Q04DX002 (ip), vehicle: saline) 100 % of control.
Take `CC(C)(C)c1cc2c(O)c(c1)Cc1cc(C(C)(C)C)cc(c1O)Cc1cc(C(C)(C)C)cc(c1O)Cc1cc(C(C)(C)C)cc(c1O)Cc1cc(C(C)(C)C)cc(c1O)Cc1cc(C(C)(C)C)cc(c1O)Cc1cc(C(C)(C)C)cc(c1O)Cc1cc(C(C)(C)C)cc(c1O)C2`: the T/C is 101 % of control (dose: 50.0 mg/kg/injection, schedule: Q01DX005 (ip), vehicle: Klucel (hydroxypropylcellulose) (HPC)); 90 % of control (dose: 100.0 mg/kg/injection, schedule: Q01DX005 (ip), vehicle: Klucel (hydroxypropylcellulose) (HPC)); 99 % of control (dose: 200.0 mg/kg/injection, schedule: Q01DX005 (ip), vehicle: Klucel (hydroxypropylcellulose) (HPC)).
Turning to `CCN1/C(=C\C2=C([O-])C(=C/c3sc4ccccc4[n+]3CC)/C2=O)Sc2ccccc21`, the T/C is, setting by setting: (dose: 60.0 mg/kg/injection, schedule: Q01DX005 (ip), vehicle: Klucel (hydroxypropylcellulose) (HPC)) 103 % of control; (dose: 120.0 mg/kg/injection, schedule: Q01DX005 (ip), vehicle: Klucel (hydroxypropylcellulose) (HPC)) 119 % of control; (dose: 240.0 mg/kg/injection, schedule: Q01DX005 (ip), vehicle: Klucel (hydroxypropylcellulose) (HPC)) 86 % of control.
In the case of `C=CCC(C(=O)OCCN(CC)CC)(c1ccccc1)c1ccccc1`, the T/C (dose: 0.75 mg/kg/injection, schedule: Q01DX009 (ip), vehicle: saline) was 100 % of control; the T/C (dose: 1.5 mg/kg/injection, schedule: Q01DX009 (ip), vehicle: saline) is 94 % of control; the T/C (dose: 3.0 mg/kg/injection, schedule: Q01DX009 (ip), vehicle: saline) was 100 % of control; the T/C (dose: 6.0 mg/kg/injection, schedule: Q01DX009 (ip), vehicle: saline) was 103 % of control; the T/C (dose: 12.0 mg/kg/injection, schedule: Q01DX009 (ip), vehicle: saline) is 100 % of control.
For `ClC(Cl)C1OCCCO1`, the T/C is, setting by setting: (dose: 60.0 mg/kg/injection, schedule: Q01DX005 (ip), vehicle: saline) 100 % of control; (dose: 120.0 mg/kg/injection, schedule: Q01DX005 (ip), vehicle: saline) 99 % of control; (dose: 240.0 mg/kg/injection, schedule: Q01DX005 (ip), vehicle: saline) 96 % of control.
On to `CSCCC(NC=O)C(=O)NC(CC(C)C)C(=O)NC(Cc1ccccc1)C(=O)O` (stereo unspecified), for which the T/C is, setting by setting: (dose: 12.5 mg/kg/injection, schedule: Q01DX005 (ip), vehicle: distilled water + Tween-80) 98 % of control; (dose: 25.0 mg/kg/injection, schedule: Q01DX005 (ip), vehicle: distilled water + Tween-80) 98 % of control; (dose: 50.0 mg/kg/injection, schedule: Q01DX005 (ip), vehicle: distilled water + Tween-80) 100 % of control; (dose: 100.0 mg/kg/injection, schedule: Q01DX005 (ip), vehicle: distilled water + Tween-80) 89 % of control; (dose: 200.0 mg/kg/injection, schedule: Q01DX005 (ip), vehicle: distilled water + Tween-80) 97 % of control.
Regarding `CNC(=S)/C(C(C)=O)=C(\C)Nc1ccccc1`, the T/C is, setting by setting: (dose: 50.0 mg/kg/injection, schedule: Q01DX009 (ip), vehicle: Klucel (hydroxypropylcellulose) (HPC)) 101 % of control; (dose: 100.0 mg/kg/injection, schedule: Q01DX009 (ip), vehicle: Klucel (hydroxypropylcellulose) (HPC)) 106 % of control; (dose: 200.0 mg/kg/injection, schedule: Q01DX009 (ip), vehicle: Klucel (hydroxypropylcellulose) (HPC)) 106 % of control.
With `O=c1[nH]nc(-c2ccc([N+](=O)[O-])o2)o1`, the T/C (dose: 6.25 mg/kg/injection, schedule: Q01DX009 (ip), vehicle: saline with Tween-80) is 101 % of control; the T/C (dose: 12.5 mg/kg/injection, schedule: Q01DX009 (ip), vehicle: saline with Tween-80) is 106 % of control; the T/C (dose: 25.0 mg/kg/injection, schedule: Q01DX009 (ip), vehicle: saline with Tween-80) was 97 % of control; the T/C under setting [1] is 99 % of control.
Take `O=C(O)CCC(=O)OCCNCCOC(=O)CCC(=O)O`: the T/C is 92 % of control under setting [4], 96 % of control under setting [5] and 99 % of control under setting [6].
Take `CCCCCC(O)/C=C/[C@H]1C(O)CC2O/C(=C\CCCC(=O)O)C[C@@H]21` (stereo partly specified): the T/C was 102 % of control (dose: 50.0 mg/kg/injection, schedule: Q01DX005 (ip), vehicle: saline); 100 % of control (dose: 100.0 mg/kg/injection, schedule: Q01DX005 (ip), vehicle: saline); 95 % of control (dose: 200.0 mg/kg/injection, schedule: Q01DX005 (ip), vehicle: saline).
`CCOC(=O)c1nc(OCC)nc(OCC)c1I`: the T/C runs as follows: under setting [7], 112 % of control; under setting [8], 107 % of control; under setting [9], 96 % of control; under setting [10], 95 % of control.
Turning to `CC1(C)OCC(C2OC(C)(C)OC2C(O)c2ccco2)O1` (stereo unspecified), the T/C is 106 % of control and 100 % of control under setting [7]; 115 % of control and 117 % of control under setting [8]; 105 % of control and 118 % of control under setting [9]; 118 % of control and 115 % of control under setting [10]; 115 % of control (dose: 200.0 mg/kg/injection, schedule: Q01DX009 (ip), vehicle: distilled water + Tween-80).
